The values below come from article PMC4499255, “Monitoring Conformational Changes in the NDM-1 Metallo-β-lactamase by ^19F NMR Spectroscopy” (Angewandte Chemie (International Ed. in English), 2014).

Data set [1] addresses T1, NDM-1 (Klebsiella pneumoniae, UniProt C7C422). The settings on record: unlabeled NDM-1; cited from earlier work.
In data set [2] the target is NDM-1* (BFA-labeled M67C NDM-1) (Klebsiella pneumoniae, UniProt C7C422, M67C). The data set is classed as biochemical. The settings on record: labeled NDM-1*; for Km: substrate affinity. Here is the method:
(§1) buffer was prepared freshly prior to the reaction.
Kinetic and inhibition analyses were performed as described1. K measurements were performed
(§2) nM NDM-1* for nitrocefin measurements. […]

Data set [3] relates to C[C@@H](O)[C@H]1C(=O)N2C(C(=O)O)=C(S[C@@H]3CN[C@H](C(=O)N(C)C)C3)[C@H](C)[C@H]12. Briefly: purified protein, by the assay type. The settings on record: other: unlabeled NDM-1; substrate affinity; 25.0 °C.
Method: We then investigated the kinetic properties of NDM-1* compared to unlabeled NDM-1.
using 0.5 nM NDM-1 and 1 nM NDM-1* for meropenem measurements and 0.25 nM NDM-1 and 2
In data set [4] the target is T1, NDM-1.
Data set [5] addresses di-ZnII-NDM-1* (BFA-labeled M67C NDM-1) (Klebsiella pneumoniae, UniProt C7C422, M67C). Description: 19F NMR ligand titration / binding assay. Here is the method: To calculate the molar fraction of protein–ligand complex, Equation (1) was used: [drawing 1] (1) where [P0] is the total protein concentration and [L0] is the total ligand concentration titrated into solution. […]
as §1
Kinetic and inhibition analyses were performed as described1. K measurements were performed […]
as §2
with rf field of 3.125 kHz.
768 scans and a recovery delay of 1s. Data were processed with 3 Hz Lorentzian line broadening […]
Trifluoroacetic acid (TFA, 50 µM) […]
was used as an internal standard. All inhibitor incubations were compared to appropriate NDM-1* […]
A DMSO titration curve was used for reference
Metal binding experiments

Read-outs that look alike come from different tables or passages of the source.

T1 sequence (C7C422 37-270 limits assumed): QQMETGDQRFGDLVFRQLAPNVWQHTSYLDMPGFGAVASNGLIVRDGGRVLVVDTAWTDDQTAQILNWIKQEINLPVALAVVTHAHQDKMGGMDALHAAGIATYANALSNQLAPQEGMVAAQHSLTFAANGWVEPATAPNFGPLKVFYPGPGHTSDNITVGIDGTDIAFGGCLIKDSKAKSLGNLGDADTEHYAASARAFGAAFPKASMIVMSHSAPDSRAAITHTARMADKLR
NDM-1* (BFA-labeled M67C NDM-1), sequence (C7C422 37-270 M67C): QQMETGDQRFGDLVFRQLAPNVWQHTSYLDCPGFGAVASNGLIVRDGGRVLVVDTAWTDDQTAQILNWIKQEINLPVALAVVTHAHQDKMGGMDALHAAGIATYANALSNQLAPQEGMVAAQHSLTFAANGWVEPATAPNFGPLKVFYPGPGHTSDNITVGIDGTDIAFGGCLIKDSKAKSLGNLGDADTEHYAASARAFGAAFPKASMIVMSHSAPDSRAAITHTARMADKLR
di-ZnII-NDM-1* (BFA-labeled M67C NDM-1), sequence (C7C422 37-270 M67C): as above

Regarding `O=C(Cc1cccs1)N[C@@H]1C(=O)N2C(C(=O)O)=C(/C=C/c3ccc([N+](=O)[O-])cc3[N+](=O)[O-])CS[C@H]12` [Nitrocefin], the values for the catalytic constant (kcat) (at NDM-1 [1]; in data set [2]) were 25.3±1.6^[a] s^−1 and 22.9 ± 0.6 s⁻¹, respectively. Also, in data set [2], the Km turned out to be 6.2 ± 0.7 µM.

For NDM-1 (Klebsiella pneumoniae), in data set [3], the Km came to 76.6 ± 4.4 µM and the turnover number (kcat) stood at 235 ± 5.6 s⁻¹.

In the case of `C[C@@H](O)[C@H]1C(=O)N2C(C(=O)O)=C(S[C@@H]3CN[C@H](C(=O)N(C)C)C3)[C@H](C)[C@H]12` [Meropenem], in data set [2], the kcat turned out to be 67.8 ± 4.3 s⁻¹ and the Km is 54.8 ± 9.4 µM.

Take `O=C(N[C@H](Cc1c[nH]c2ccccc12)C(=O)O)c1nc(Cl)c2ccccc2c1O` [compound 4, (R)-2-(1-chloro-4-hydroxyisoquinoline-3-carboxamido)-3-(1H-indol-3-yl)propanoic acid]: the IC50 on NDM-1 [4] (NDM-1; read-out: reported IC50; cited from earlier work) was 47 µM.

For `O=C(N[C@@H](Cc1c[nH]c2ccccc12)C(=O)O)c1nc(Cl)c2ccccc2c1O` [compound 3, (S)-2-(1-chloro-4-hydroxyisoquinoline-3-carboxamido)-3-(1H-indol-3-yl)propanoic acid], the IC50 at NDM-1 [4] (read-out: reported IC50; NDM-1; cited from earlier work) is 61 µM. This molecule returned a dissociation constant Kd in data set [5] of 131 µM.

In the case of `C[C@H]1[C@H](NC(=O)/C(=N\OC(C)(C)C(=O)O)c2csc(N)n2)C(=O)N1S(=O)(=O)O` [aztreonam], the “reported inhibition of NDM-1” value at NDM-1 [4] (ref 9b; cited from earlier work) is on record as “not to inhibit NDM-1”. The “19F chemical shift change upon addition of ligand (binding)” value in data set [5] (ligand 2.5 mM) is given as “no ^19F chemical shift change was observed”.
